Source: patent US20100311714A1, “1H-IMIDAZO[4,5-c]QUINOLINONE COMPOUNDS” (priority 2009, published 2010)
Read-outs that look alike come from different tables or passages of the source.

Molecular target: T1, PI3K beta (Homo sapiens, UniProt P42338)
T1 construct: for the full-length p110-b subunit are generated and fused by overlapping PCR; His tag (C); made in house; host or cells: baculovirus BV949; Tn5 (Trichoplusia ni) or TiniPro insect cells
Assay: PI3K beta kinase assay (Kinase-Glo luminescence)
Assay type: biochemical
Protocol: In a more preferred assay, the kinase reaction is performed in a final volume of 10 μL per well of a low volume non binding CORNING, 384 well black plate (Cat. No. #3676). The final concentrations of ATP and phosphatidyl inositol (PI) in the assay are 1 μM and 10 μg/mL respectively. The reaction is started by the addition of ATP.
The components of the assay are added per well as follows:
50 nL test compounds in 90% DMSO per well, in columns 1-20, 8 concentrations (⅓ and 1/3.33 serial dilution step) in single. • Low control: […] of 90% DMSO in half the wells of columns 23-24 (0.45% in final). • High control: 50 nL of reference compound (e.g. compound of Example 7 in WO 2006/122806) in the other half of columns 23-24 (2.5 μM in final). • Standard: 50 nL of reference compound as just mentioned diluted as the test compounds in columns 21-22 • 20 mL ‘buffer’ are prepared per assay: • 200 μL of 1M TRIS HCl pH7.5 (10 mM in final) • 60 μL of 1M MgCl2 (3 mM in final) • 500 μL of 2M NaCl (50 mM in final) • 100 μL of 10% CHAPS (0.05% in final) • 200 μL of 100 mM DTT (1 mM in final) • 18.94 mL of nanopure water • 10 mL ‘PI’ are prepared per assay: • 200 μL of 1 mg/ml L-alpha-Phosphatidylinositol (Liver Bovine, Avanti Polar Lipids Cat. No. 840042C MW=909.12) prepared in 3% OctylGlucoside (10 μg/ml in final) • 9.8 mL of ‘buffer’ • 10 mL ‘ATP’ are prepared per assay: • 6.7 μL of 3 mM stock of ATP giving a final concentration of 1 μM per well • 10 mL of ‘buffer’ • 2.5 mL of each PI3K construct are prepared per assay in ‘PI’ with the following final concentration: • 10 nM PI3K alfa EMV B1075 • 25 nM beta EMV BV949 • 10 nM delta EMV BV1060 • 150 nM gamma EMV BV950 • 5 μL of ‘PI/PI3K’ are added per well. • 5 μl ‘ATP’ are added per well to start the reaction. • The plates are then incubated at room temperature for 60 minutes (alfa, beta, delta) or 120 minutes (gamma). • The reaction is terminated by the addition of 10 μL Kinase-Glo (Promega Cat. No. #6714). • The assay plates are read after 10 minutes in Synergy 2 reader (BioTek, Vermont USA) with an integration time of 100 milliseconds and sensitivity set to 191. • Output: The High control is around 60′000 counts and the Low control is 30′000 or lower • This luminescence assay gives a useful Z′ ratio between 0.4 and 0.7
PI3Kβ BV-949 p85(iSH2)-Gly linker-r 110b(full-length)-C-term His Tag
PI3K beta is purified in two chromatographic steps: immobilized metal affinity chromatography (IMAC) on a Ni Sepharose resin (GE Healthcare) and gel filtration (GFC) utilizing a Superdex 200 26/60 column (GE Healthcare). All buffers are chilled to 4° C. and lysis is performed chilled on ice. Column fractionation is performed rapidly at room temperature.
IC50 is determined by a four parameter curve fitting routine that comes along with “excel fit”. A 4 Parameter logistic equation is used to calculate IC50 values (IDBS XLfit) of the percentage inhibition of each compound at 8 concentrations (usually 10, 3.0, 1.0, 0.3, 0.1, 0.030, 0.010 and 0.003 μM). Alternatively, IC50 values are calculated using idbsXLfit model 204, which is a 4 parameter logistic model.

T1 sequence (P42338 with tags, fused parts or gaps limits assumed): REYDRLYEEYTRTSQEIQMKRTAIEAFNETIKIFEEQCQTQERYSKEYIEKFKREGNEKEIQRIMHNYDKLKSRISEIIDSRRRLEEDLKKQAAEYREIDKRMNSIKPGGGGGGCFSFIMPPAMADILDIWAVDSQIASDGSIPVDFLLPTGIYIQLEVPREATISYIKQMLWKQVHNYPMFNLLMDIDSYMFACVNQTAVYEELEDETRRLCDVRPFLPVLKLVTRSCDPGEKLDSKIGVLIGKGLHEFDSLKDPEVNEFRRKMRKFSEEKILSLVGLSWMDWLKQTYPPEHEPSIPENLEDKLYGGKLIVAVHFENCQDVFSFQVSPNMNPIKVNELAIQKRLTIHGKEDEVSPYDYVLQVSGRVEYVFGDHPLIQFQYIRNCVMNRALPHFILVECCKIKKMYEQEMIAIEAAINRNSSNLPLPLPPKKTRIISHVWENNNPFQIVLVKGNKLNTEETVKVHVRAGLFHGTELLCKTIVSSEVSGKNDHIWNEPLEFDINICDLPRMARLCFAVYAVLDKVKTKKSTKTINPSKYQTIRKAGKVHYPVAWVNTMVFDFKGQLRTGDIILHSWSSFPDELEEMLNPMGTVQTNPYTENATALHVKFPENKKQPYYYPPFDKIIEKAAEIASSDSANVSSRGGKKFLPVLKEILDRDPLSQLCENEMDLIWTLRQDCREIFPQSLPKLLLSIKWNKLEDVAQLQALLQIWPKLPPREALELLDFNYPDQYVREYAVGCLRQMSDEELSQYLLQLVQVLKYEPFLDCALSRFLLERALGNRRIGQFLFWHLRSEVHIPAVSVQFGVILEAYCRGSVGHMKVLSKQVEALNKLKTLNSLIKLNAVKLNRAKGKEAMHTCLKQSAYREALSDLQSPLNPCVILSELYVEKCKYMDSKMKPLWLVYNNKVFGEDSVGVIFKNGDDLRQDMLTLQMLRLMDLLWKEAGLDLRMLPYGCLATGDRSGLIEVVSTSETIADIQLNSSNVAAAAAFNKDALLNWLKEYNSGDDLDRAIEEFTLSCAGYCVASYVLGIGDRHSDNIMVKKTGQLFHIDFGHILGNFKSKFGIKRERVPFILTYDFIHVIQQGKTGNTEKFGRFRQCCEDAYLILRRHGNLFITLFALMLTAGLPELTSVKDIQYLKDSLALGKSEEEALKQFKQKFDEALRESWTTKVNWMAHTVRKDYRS

Row | SMILES | IC50 (read-out: PI3Kbeta/IC50) | IC50 (read-out: EPK_PI3Kbeta/IC50)
1 | COc1ncccc1-n1c(=O)n(C)c2cnc3ccc(-c4ccc(C(N)=O)cc4)cc3c21 [Example 1.6, 4-[1-(2-Methoxy-pyridin-3-yl)-3-methyl-2-oxo-2,3-dihydro-1H-imidazo[4,5-c]quinolin-8-yl]-benzamide] | 491 nM | –
2 | CCOc1cc(-c2ccc3ncc4c(c3c2)n(-c2cccnc2C)c(=O)n4C)cnc1COC [Example 2.28, 8-(5-Ethoxy-6-methoxymethyl-pyridin-3-yl)-3-methyl-1-(2-methyl-pyridin-3-yl)-1,3-dihydro-imidazo[4,5-c]quinolin-2-one] | – | 563 nM
3 | Cc1ncccc1-n1c(=O)n(C)c2cnc3ccc(-c4cnc(N)c(C(F)(F)F)c4)cc3c21 [Example 2.11, 8-(6-Amino-5-trifluoromethyl-pyridin-3-yl)-3-methyl-1-(2-methyl-pyridin-3-yl)-1,3-dihydro-imidazo[4,5-c]quinolin-2-one] | 14 nM | –
4 | CNc1ncc(-c2ccc3ncc4c(c3c2)n(-c2ccc(N3CCC(O)C3)nc2C)c(=O)n4C)cn1 (stereo not shown) [Example 27.2, 1-[6-(3-Hydroxy-pyrrolidin-1-yl)-2-methyl-pyridin-3-yl]-3-methyl-8-(2-methylamino-pyrimidin-5-yl)-1,3-dihydro-imidazo[4,5-c]quinolin-2-one] | – | 124 nM
5 | Cc1ncccc1-n1c(=O)n(C)c2cnc3ccc(-c4cnc(N(C)C)nc4)cc3c21 [Example 2.15, 8-(2-Dimethylamino-pyrimidin-5-yl)-3-methyl-1-(2-methyl-pyridin-3-yl)-1,3-dihydro-imidazo[4,5-c]quinolin-2-one] | 360 nM | –
6 | CCNc1cc(-c2ccc3ncc4c(c3c2)n(-c2cccnc2C)c(=O)n4C)cnc1CO [Example 2.31, 8-(5-Ethylamino-6-hydroxymethyl-pyridin-3-yl)-3-methyl-1-(2-methyl-pyridin-3-yl)-1,3-dihydro-imidazo[4,5-c]quinolin-2-one] | – | 67 nM
7 | CCNc1cc(-c2ccc3ncc4c(c3c2)n(-c2ccc(N3CC(O)C3)nc2C)c(=O)n4C)cnc1CO [Example 29.2, 8-(5-Ethylamino-6-hydroxymethyl-pyridin-3-yl)-1-[6-(3-hydroxy-azetidin-1-yl)-2-methyl-pyridin-3-yl]-3-methyl-1,3-dihydro-imidazo[4,5-c]quinolin-2-one] | – | 677 nM
8 | CCOc1cc(-c2ccc3ncc4c(c3c2)n(-c2ccc(N3CCC3)nc2C)c(=O)n4C)cnc1COC [Example 23.5, 1-(6-Azetidin-1-yl-2-methyl-pyridin-3-yl)-8-(5-ethoxy-6-methoxymethyl-pyridin-3-yl)-3-methyl-1,3-dihydro-imidazo[4,5-c]quinolin-2-one] | – | 208 nM
9 | CCNc1cc(-c2ccc3ncc4c(c3c2)n(-c2ccc(N3CCC3)nc2C)c(=O)n4C)cnc1CO [Example 23.8, 1-(6-Azetidin-1-yl-2-methyl-pyridin-3-yl)-8-(5-ethylamino-6-hydroxymethyl-pyridin-3-yl)-3-methyl-1,3-dihydro-imidazo[4,5-c]quinolin-2-one] | – | 36 nM
10 | CNc1ncc(-c2ccc3ncc4c(c3c2)n(-c2ccc(C(C)(C)O)nc2C)c(=O)n4C)cc1F [Example 31.1, 8-(5-Fluoro-6-methylamino-pyridin-3-yl)-1-[6-(1-hydroxy-1-methyl-ethyl)-2-methyl-pyridin-3-yl]-3-methyl-1,3-dihydro-imidazo[4,5-c]quinolin-2-one] | – | 217 nM
11 | Cc1nc(C(C)(C)O)ccc1-n1c(=O)n(C)c2cnc3ccc(-c4cnc(N)c(C(F)(F)F)c4)cc3c21 [Example 31.5, 8-(6-Amino-5-trifluoromethyl-pyridin-3-yl)-1-[6-(1-hydroxy-1-methyl-ethyl)-2-methyl-pyridin-3-yl]-3-methyl-1,3-dihydro-imidazo[4,5-c]quinolin-2-one] | – | 9 nM
12 | COc1cc(-c2ccc3ncc4c(c3c2)n(-c2ccc(N3CC(O)C3)nc2C)c(=O)n4C)cnc1CO [Example 29.5, 1-[6-(3-Hydroxy-azetidin-1-yl)-2-methyl-pyridin-3-yl]-8-(6-hydroxymethyl-5-methoxy-pyridin-3-yl)-3-methyl-1,3-dihydro-imidazo[4,5-c]quinolin-2-one] | – | 277 nM
13 | Cc1ncccc1-n1c(=O)n(C)c2cnc3ccc(-c4cncc(N5CCC5)c4)cc3c21 [Example 2.29, 8-(5-Azetidin-1-yl-pyridin-3-yl)-3-methyl-1-(2-methyl-pyridin-3-yl)-1,3-dihydro-imidazo[4,5-c]quinolin-2-one] | – | 782 nM
14 | CNc1ncc(-c2ccc3ncc4c(c3c2)n(-c2ccc(N3CC[C@H](O)C3)nc2C)c(=O)n4C)cc1C(F)(F)F [Example 32.5, 1-[6-((S)-3-Hydroxy-pyrrolidin-1-yl)-2-methyl-pyridin-3-yl]-3-methyl-8-(6-methylamino-5-trifluoromethyl-pyridin-3-yl)-1,3-dihydro-imidazo[4,5-c]quinolin-2-one] | – | 37 nM
15 | Cn1c(=O)n(-c2cccnc2F)c2c3cc(-c4cnc(N)c(C(F)(F)F)c4)ccc3ncc21 [Example 6.2, 8-(6-Amino-5-trifluoromethyl-pyridin-3-yl)-1-(2-fluoro-pyridin-3-yl)-3-methyl-1,3-dihydro-imidazo[4,5-c]quinolin-2-one] | 7 nM | –
16 | CNc1ncc(-c2ccc3ncc4c(c3c2)n(-c2ccc(N3CC(O)C3)nc2C)c(=O)n4C)cc1C(F)(F)F [Example 29.4, 1-[6-(3-Hydroxy-azetidin-1-yl)-2-methyl-pyridin-3-yl]-3-methyl-8-(6-methylamino-5-trifluoromethyl-pyridin-3-yl)-1,3-dihydro-imidazo[4,5-c]quinolin-2-one] | – | 69 nM
17 | Cc1nc(N2CCC2)ccc1-n1c(=O)n(C)c2cnc3ccc(-c4cncc(N5CCC5)c4)cc3c21 [Example 23.1, 1-(6-Azetidin-1-yl-2-methyl-pyridin-3-yl)-8-(5-azetidin-1-yl-pyridin-3-yl)-3-methyl-1,3-dihydro-imidazo[4,5-c]quinolin-2-one] | – | 1160 nM
18 | Cc1nc(C(C)(C)O)ccc1-n1c(=O)n(C)c2cnc3ccc(-c4cncc(C(C)(C)C#N)c4)cc3c21 [Example 31.6, 2-(5-{1-[6-(1-Hydroxy-1-methyl-ethyl)-2-methyl-pyridin-3-yl]-3-methyl-2-oxo-2,3-dihydro-1H-imidazo[4,5-c]quinolin-8-yl}-pyridin-3-yl)-2-methyl-propionitrile] | – | 25 nM
19 | Cc1nc(N2CCCC2)ccc1-n1c(=O)n(C)c2cnc3ccc(-c4cncc(C(C)(C)O)c4)cc3c21 [Example 25.3, 8-[5-(1-Hydroxy-1-methyl-ethyl)-pyridin-3-yl]-3-methyl-1-(2-methyl-6-pyrrolidin-1-yl-pyridin-3-yl)-1,3-dihydro-imidazo[4,5-c]quinolin-2-one] | – | < 3 nM
20 | CNc1ncc(-c2ccc3ncc4c(c3c2)n(-c2ccc(N3CC(O)C3)nc2C)c(=O)n4C)cc1F [Example 29.3, 8-(5-Fluoro-6-methylamino-pyridin-3-yl)-1-[6-(3-hydroxy-azetidin-1-yl)-2-methyl-pyridin-3-yl]-3-methyl-1,3-dihydro-imidazo[4,5-c]quinolin-2-one] | – | 301 nM
21 | COc1ccc(-c2ccc3ncc4c(c3c2)n(-c2cccnc2C)c(=O)n4C)cc1OC [Example 2.9, 8-(3,4-Dimethoxy-phenyl)-3-methyl-1-(2-methyl-pyridin-3-yl)-1,3-dihydro-imidazo[4,5-c]quinolin-2-one] | 77 nM | –
22 | CNc1ncc(-c2ccc3ncc4c(c3c2)n(-c2ccc(N3CC[C@H](O)C3)nc2C)c(=O)n4C)cn1 [Example 32.1, 1-[6-((S)-3-Hydroxy-pyrrolidin-1-yl)-2-methyl-pyridin-3-yl]-3-methyl-8-(2-methylamino-pyrimidin-5-yl)-1,3-dihydro-imidazo[4,5-c]quinolin-2-one] | – | 103 nM
